Article PMC6988797, “Antiarrhythmic Properties of Ranolazine: Inhibition of Atrial Fibrillation Associated TASK-1 Potassium Channels” (Frontiers in Pharmacology, 2019)

Experiments:
Assay type in all cases: cell-based
TALK-2 = biological target: T1, TALK-2 (Homo sapiens, UniProt Q96T54); experiment: two-electrode voltage clamp in Xenopus laevis oocytes, […] ranolazine
T1 construct: gene KCNK17
T1 sequence (Q96T54 1-332): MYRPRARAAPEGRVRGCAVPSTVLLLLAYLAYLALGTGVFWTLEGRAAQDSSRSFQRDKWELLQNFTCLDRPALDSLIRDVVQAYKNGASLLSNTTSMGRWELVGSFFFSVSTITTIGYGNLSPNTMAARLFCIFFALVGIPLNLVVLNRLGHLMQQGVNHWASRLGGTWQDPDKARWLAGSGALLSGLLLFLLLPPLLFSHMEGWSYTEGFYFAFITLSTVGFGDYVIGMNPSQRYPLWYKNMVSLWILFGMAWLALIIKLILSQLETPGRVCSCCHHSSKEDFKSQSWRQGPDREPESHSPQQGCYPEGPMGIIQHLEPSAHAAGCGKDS

TASK-2 = biological target: T2, TASK-2 (Homo sapiens, UniProt O95279); experiment: as above
T2 construct: gene KCNK5
T2 sequence (O95279 1-499): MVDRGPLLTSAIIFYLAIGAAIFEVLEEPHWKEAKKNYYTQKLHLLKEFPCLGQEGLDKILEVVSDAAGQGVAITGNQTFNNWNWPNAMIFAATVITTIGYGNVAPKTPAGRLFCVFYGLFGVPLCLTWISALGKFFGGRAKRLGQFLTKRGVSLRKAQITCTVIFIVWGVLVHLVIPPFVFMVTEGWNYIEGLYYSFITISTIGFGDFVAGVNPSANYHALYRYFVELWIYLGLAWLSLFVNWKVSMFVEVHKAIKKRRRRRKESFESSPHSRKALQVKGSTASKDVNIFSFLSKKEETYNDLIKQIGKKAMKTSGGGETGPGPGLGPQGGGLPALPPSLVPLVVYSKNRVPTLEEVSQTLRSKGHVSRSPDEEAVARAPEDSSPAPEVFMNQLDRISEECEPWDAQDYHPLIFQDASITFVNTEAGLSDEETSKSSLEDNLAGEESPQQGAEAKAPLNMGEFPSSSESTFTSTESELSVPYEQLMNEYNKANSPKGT

TASK-3 = biological target: T3, TASK-3 (Homo sapiens, UniProt Q9NPC2); experiment: as above
T3 construct: gene KCNK9

TASK-1 = biological target: T4, TASK-1 (Homo sapiens, UniProt O14649); experiment: whole-cell patch clamp in CHO cells; two-electrode voltage clamp in Xenopus laevis oocytes; pore mutagenesis
T4 construct: gene KCNK3

TALK-1 = biological target: T5, TALK-1 (Homo sapiens, UniProt Q96T55); experiment: two-electrode voltage clamp in Xenopus laevis oocytes, […] ranolazine
T5 construct: gene KCNK16
T5 sequence (Q96T55 1-309): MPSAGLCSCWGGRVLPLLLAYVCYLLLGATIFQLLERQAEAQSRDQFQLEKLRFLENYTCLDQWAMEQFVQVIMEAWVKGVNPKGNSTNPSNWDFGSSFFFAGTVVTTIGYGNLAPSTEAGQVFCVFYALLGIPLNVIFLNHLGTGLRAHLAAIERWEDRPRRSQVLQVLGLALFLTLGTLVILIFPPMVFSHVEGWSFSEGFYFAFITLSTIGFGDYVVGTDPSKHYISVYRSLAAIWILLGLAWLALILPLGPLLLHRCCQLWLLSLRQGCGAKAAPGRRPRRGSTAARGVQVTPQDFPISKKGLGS

T4 sequence (O14649 whole entry): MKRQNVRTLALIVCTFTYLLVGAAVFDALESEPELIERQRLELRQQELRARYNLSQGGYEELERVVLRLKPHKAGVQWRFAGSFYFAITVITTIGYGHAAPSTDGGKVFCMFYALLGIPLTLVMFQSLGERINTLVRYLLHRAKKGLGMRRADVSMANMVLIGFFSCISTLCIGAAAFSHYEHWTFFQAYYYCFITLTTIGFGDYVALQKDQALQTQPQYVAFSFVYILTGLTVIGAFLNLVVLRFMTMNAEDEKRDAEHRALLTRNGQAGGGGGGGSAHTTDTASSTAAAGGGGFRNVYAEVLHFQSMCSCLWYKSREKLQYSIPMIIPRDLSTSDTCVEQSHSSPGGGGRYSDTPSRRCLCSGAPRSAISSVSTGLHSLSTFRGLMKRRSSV
T3 sequence (Q9NPC2 whole entry): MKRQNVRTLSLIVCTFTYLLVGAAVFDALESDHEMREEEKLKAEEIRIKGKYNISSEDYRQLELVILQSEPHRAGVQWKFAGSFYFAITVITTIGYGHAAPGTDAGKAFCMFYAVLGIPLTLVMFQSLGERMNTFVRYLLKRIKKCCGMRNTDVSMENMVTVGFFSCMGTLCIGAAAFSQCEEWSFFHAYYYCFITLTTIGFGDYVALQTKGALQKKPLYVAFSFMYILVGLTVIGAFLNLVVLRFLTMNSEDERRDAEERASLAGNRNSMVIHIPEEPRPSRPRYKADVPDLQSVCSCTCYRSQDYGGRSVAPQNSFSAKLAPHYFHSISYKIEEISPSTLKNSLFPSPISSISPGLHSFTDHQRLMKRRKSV

inhibition at 300 µM (TALK-2): 34.9%
inhibition at 300 µM (TASK-2): 30%
inhibition at 300 µM (TASK-3): 28.3%
inhibition at 300 µM (TALK-1): 23%
SMILES: COc1ccccc1OCC(O)CN1CCN(CC(=O)Nc2c(C)cccc2C)CC1 (centres unmarked) [ranolazine]
IC50 (TASK-1): 30.6 µM
